Data as given in patent US6583309B1 (University of Medicine and Dentistry of New Jersey, priority 1999, dated 2003).

target: TAR RNA; experiment: In vitro binding of resin-bound compounds to TAR RNA (OD260 of unbound RNA); parameters: species or system HIV; conditions: in vitro assay; compounds of formula I on TentaGel beads incubated with TAR RNA overnight at 4° C. in TK buffer; read-out: Kd (nM), binding constants
Procedure: Binding of compounds of formula I and V to TAR RNA was measured by evaluating their inhibition of TAR-TAT complex formation in the presence of increasing levels of the compound to be tested. The compounds of formula I were tested in an in vitro assay; the compounds of formula V were tested in an in vivo assay.
The TAR RNA used corresponds to the minimal sequence required for TAT responsiveness in vivo. This 29-residue oligonucleotide has the sequence: 5′-[…]-3′ (SEQ ID NO.: 1). TAR RNA was prepared by in vitro transcription. A “top strand” single-stranded DNA oligomer having the sequence 5′-TAATACGACTCACTATAG-3′ (SEQ ID NO.: 2) was annealed to a “bottom strand” single-stranded DNA template having the following sequence: 3′-[…]-5′ (SEQ ID NO.: 3), thereby generating a double-stranded region corresponding to a promoter sequence recognized by T7 RNA polymerase. Transcription was carried out in transcription buffer (40 mM Tris-HCl, pH 8.1, 1 mM spermidine, 0.01% Triton®X-100, 5 mM dithiothreitol, 4 mM each of ATP, GTP, CTP, and UTP at 37° C. for 4 to 5 hours. Reactions were performed in a volume of 0.02 ml containing 8 pmole of template (top strand annealed to bottom strand) and 40 to 60 units of T7 RNA polymerase. Transcription was terminated by adding an equal volume of loading buffer (9M urea, 1 mmol EDTA, 0.1M bromophenol blue in 1XTBE buffer; TBE is 45 mmol trisborate at pH 8). Product RNA was purified by electrophoresis through a denaturing 20% polyacrylamide gel containing 8M urea. RNA was extracted from the gel, precipitated, dissolved in dithylpyrocarbonate-treated water, and stored at −20° C. until used.
In vitro assay conditions: Compounds AA-DU were synthesized on TentaGel S—NH2 (4.6 mmole). All Fmoc-amino acids were purchased from Bachem (Torrance, Calif.). 1-hydroxybenzotriazole (HOBT) and diisopropylcarbodiimide (DIPCDI) were obtained from Aldrich Chemical Co., Milwalkee, Wis. Piperidine and trifluoroacetic acid were purchased from Applied Biosystems Division, Perkin-Elmer. Compounds AA-DU were synthesized manually according to standard solid-phase peptide synthesis protocols. Coupling efficiencies of residues at each step were monitored by Kaiser test. Deprotection of trimer peptides was carried out in 10% water in trifluoroacetic acid (1 mL) for 16 hours at room temperature. After filtration of solvents, the resin was washed with water (1 mL×4), DMF (1 mL×4), dichloromethane (1 mL×4), and dried under reduced pressure. The compounds attached to the resin (10 beads) were placed in an Eppendorf tube and washed with TK buffer ([…]). The beads were suspended in TK buffer ([…]) and incubated with TAR RNA ([…]) overnight at 4° C. The suspension was centrifuged and the supernatant containing unbound RNA was transferred to a cuvette for OD260 measurements. The UV absorbance was measured by a Shimadzu UV-1601 spectrometer. Equilibrium concentrations of RNA were determined from these measurements. Given that the initial concentrations of ligand and RNA are known, and assuming simple bimolecular receptor/substrate binding, dissociation constant (KD) was calculated from straightforward equations.

Kd	Compound
460 nM	NCCCC[C@H](N)COC(=O)N[C@H](CCCCN)COC(=O)N[C@@H](CCCCN)COC(N)=O [Compound CA, Carbamic acid 6-amino-2-[6-amino-2-(2,6-diamino-hexyloxycarbonylamino)-hexyloxycarbonylamino]-hexyl ester]
603 nM	NCCCC[C@@H](N)COC(=O)N[C@H](CCCCN)COC(=O)N[C@@H](CCCCN)COC(N)=O [Compound CB, Carbamic acid 6-amino-2-[6-amino-2-(2,6-diamino-hexyloxycarbonylamino)-hexyloxycarbonylamino]-hexyl ester]
567 nM	NCCCC[C@@H](COC(N)=O)NC(=O)OC[C@@H](CCCCN)NC(=O)[C@@H](N)CCCCN [Compound CC, Carbamic acid 6-amino-2-[6-amino-2-(2,6-diamino-hexanoylamino)-hexyloxycarbonylamino]-hexyl ester]
301 nM	NCCCCCNCC(=O)N[C@H](CCCCN)COC(=O)N[C@@H](CCCCN)COC(N)=O [Compound CE, Carbamic acid 6-amino-2-{6-amino-2-[2-(5-amino-pentylamino)-acetylamino]-hexyloxycarbonylamino}-hexyl ester]
567 nM	NCCCCCCCNCC(=O)N[C@H](CCCCN)COC(=O)N[C@@H](CCCCN)COC(N)=O [Compound CF, Carbamic acid 6-amino-2-{6-amino-2-[2-(7-amino-heptylamino)-acetylamino]-hexyloxycarbonylamino}-hexyl ester]
603 nM	NCCCCNCC(=O)N[C@H](CCCCN)COC(=O)N[C@@H](CCCCN)COC(N)=O [Compound CG, Carbamic acid 6-amino-2-{6-amino-2-[2-(4-amino-butylamino)-acetylamino]-hexyloxycarbonylamino}-hexyl ester]
865 nM	N=C(N)NCCC[C@H](N)COC(=O)N[C@H](CCCCN)COC(=O)N[C@@H](CCCCN)COC(N)=O [Compound CH, Carbamic acid 6-amino-2-[6-amino-2-(2-amino-5-guanidino-pentyloxycarbonylamino)-hexyloxycarbonylamino]-hexyl ester]
1110 nM	NCCCC[C@@H](N)COC(=O)N[C@@H](CCCCN)COC(=O)N[C@@H](CCCCN)COC(N)=O [Compound CK, Carbamic acid 6-amino-2-[6-amino-2-(2,6-diamino-hexyloxycarbonylamino)-hexyloxycarbonylamino]-hexyl ester]
491 nM	NCCCC[C@@H](COC(N)=O)NC(=O)OC[C@H](CCCCN)NC(=O)[C@H](N)CCCCN [Compound CM, Carbamic acid 6-amino-2-[6-amino-2-(2,6-diamino-hexanoylamino)-hexyloxycarbonylamino]-hexyl ester]
235 nM	NCCCCCNCC(=O)N[C@@H](CCCCN)COC(=O)N[C@@H](CCCCN)COC(N)=O [Compound CN, Carbamic acid 6-amino-2-{6-amino-2-[2-(5-amino-pentylamino)-acetylamino]-hexyloxycarbonylamino}-hexyl ester]
147 nM	NCCCCCCCNCC(=O)N[C@@H](CCCCN)COC(=O)N[C@@H](CCCCN)COC(N)=O [Compound CO, Carbamic acid 6-amino-2-{6-amino-2-[2-(7-amino-heptylamino)-acetylamino]-hexyloxycarbonylamino}-hexyl ester]
678 nM	NCCCCNCC(=O)N[C@@H](CCCCN)COC(=O)N[C@@H](CCCCN)COC(N)=O [Compound CP, Carbamic acid 6-amino-2-{6-amino-2-[2-(4-amino-butylamino)-acetylamino]-hexyloxycarbonylamino}-hexyl ester]
2350 nM	N=C(N)NCCC[C@H](N)COC(=O)N[C@@H](CCCCN)COC(=O)N[C@@H](CCCCN)COC(N)=O [Compound CQ, Carbamic acid 6-amino-2-[6-amino-2-(2-amino-5-guanidino-pentyloxycarbonylamino)-hexyloxycarbonylamino]-hexyl ester]
491 nM	NCCCC[C@H](N)COC(=O)N(CCCCN)CC(=O)N[C@@H](CCCCN)COC(N)=O [Compound CS, Carbamic acid 6-amino-2-{2-[(4-amino-butyl)-(2,6-diamino-hexyloxycarbonyl)-amino]-acetylamino}-hexyl ester]
147 nM	NCCCC[C@@H](N)COC(=O)N(CCCCN)CC(=O)N[C@@H](CCCCN)COC(N)=O [Compound CT, Carbamic acid 6-amino-2-{2-[(4-amino-butyl)-(2,6-diamino-hexyloxycarbonyl)-amino]-acetylamino}-hexyl ester]
718 nM	NCCCC[C@@H](COC(N)=O)NC(=O)CN(CCCCN)C(=O)[C@@H](N)CCCCN [Compound CU, Carbamic acid 6-amino-2-{2-[(4-amino-butyl)-(2,6-diamino-hexanoyl)-amino]-acetylamino}-hexyl ester]
567 nM	NCCCC[C@@H](COC(N)=O)NC(=O)CN(CCCCN)C(=O)[C@H](N)CCCCN [Compound CV, Carbamic acid 6-amino-2-{2-[(4-amino-butyl)-(2,6-diamino-hexanoyl)-amino]-acetylamino}-hexyl ester]
3980 nM	NCCCCCNCC(=O)N(CCCCN)CC(=O)N[C@@H](CCCCN)COC(N)=O [Compound CW]
256 nM	NCCCCCCCNCC(=O)N(CCCCN)CC(=O)N[C@@H](CCCCN)COC(N)=O [Compound CX, Carbamic acid 6-amino-2-(2-{(4-amino-butyl)-[2-(7-amino-heptylamino)-acetyl]-amino}-acetylamino)-hexyl ester]
523 nM	NCCCCNCC(=O)N(CCCCN)CC(=O)N[C@@H](CCCCN)COC(N)=O [Compound CY, Carbamic acid 6-amino-2-(2-{(4-amino-butyl)-[2-(4-amino-butylamino)-acetyl]-amino}-acetylamino)-hexyl ester]
183 nM	N=C(N)NCCC[C@H](N)COC(=O)N(CCCCN)CC(=O)N[C@@H](CCCCN)COC(N)=O [Compound CZ, Carbamic acid 6-amino-2-{2-[(4-amino-butyl)-(2-amino-5-guanidino-pentyloxycarbonyl)-amino]-acetylamino}-hexyl ester]
256 nM	NCCCCCN(CC(=O)N[C@@H](CCCCN)COC(N)=O)C(=O)OC[C@@H](N)CCCCN [Compound DB, Carbamic acid 6-amino-2-{2-[(5-amino-pentyl)-(2,6-diamino-hexyloxycarbonyl)-amino]-acetylamino}-hexyl ester]
5110 nM	NCCCCCN(CC(=O)N[C@@H](CCCCN)COC(N)=O)C(=O)OC[C@H](N)CCCCN [Compound DC, Carbamic acid 6-amino-2-{2-[(5-amino-pentyl)-(2,6-diamino-hexyloxycarbonyl)-amino]-acetylamino}-hexyl ester]

Compound	Kd
NCCCC[C@@H](COC(N)=O)NC(=O)OC[C@H](CCCCN)NC(=O)OC[C@H](N)CCC(N)=O [Compound CR, Carbamic acid 6-amino-2-[6-amino-2-(2-amino-4-carbamoyl-butoxycarbonylamino)-hexyloxycarbonylamino]-hexyl ester]	981 nM
NCCCC[C@@H](COC(N)=O)NC(=O)CN(CCCCN)C(=O)OC[C@H](N)CCC(N)=O [Compound DA, Carbamic acid 6-amino-2-{2-[(4-amino-butyl)-(2-amino-4-carbamoyl-butoxycarbonyl)-amino]-acetylamino}-hexyl ester]	301 nM
